Patent US9833497B2, “Human originated EGF domain proteins and use of the same” (CHENGDU SOURCEBIO LIMITED-LIABILITY COMPANY, priority 2013, dated 2017)

Experiments:
Type in all cases: cell-based
Serratia marcescens = assay: MIC against Gram-negative bacteria: Serratia marcescens; conditions: 5×10^5 CFU/mL
How it was run: (§1)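 Read-out is absence of bacterial growth, with MIC set at the lowest recombinant protein concentration achieving it. Bacteria, pre-grown in LB to McFarland 0.5 and resuspended, were exposed at 5×10^5 CFU/mL to two-fold diluted human EGF domain proteins in triplicate at 37° C, 175 rpm.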

Moraxella catarrhalis = assay: MIC against Gram-negative bacteria: Moraxella catarrhalis; conditions: 5×10^5 CFU/mL
How it was run: as §1

Aeromonas hydrophila = assay: MIC against Gram-negative bacteria: Aeromonas hydrophila; conditions: 5×10^5 CFU/mL
How it was run: as §1

Citrobacter diversus = assay: MIC against Gram-negative bacteria: Citrobacter diversus; conditions: 5×10^5 CFU/mL
How it was run: as §1

E. coli DH5α = assay: Antibacterial activity: MIC and growth curve against E. coli DH5α in 96-well plate; conditions: minimal inhibitory concentration against E. coli DH5α; 96-well plate, 5×10^5 CFU/mL, 37° C., judged after 8 h
How it was run: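 Log-phase DH5α (OD600 about 0.5, 37° C, 185 rpm in LB) was pelleted, resuspended in fresh LB and seeded at 5×10^5 CFU/mL with recombinant protein at 50, 25 and 12.5 μg/mL (two-fold series), in triplicate. Plates were shaken at 175 rpm, 37° C, and OD600 was read every 30 min. MIC was the lowest concentration with no growth.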

E. coli BL21 = assay: MIC against Gram-negative bacteria: E. coli BL21; conditions: 5×10^5 CFU/mL
How it was run: as §1

Proteus vulgaris = assay: MIC against Gram-negative bacteria: Proteus vulgaris; conditions: 5×10^5 CFU/mL
How it was run: as §1

Proteus mirabilis = assay: MIC against Gram-negative bacteria: Proteus mirabilis; conditions: 5×10^5 CFU/mL
How it was run: as §1

Enterobacter cloacae = assay: MIC against Gram-negative bacteria: Enterobacter cloacae; conditions: 5×10^5 CFU/mL
How it was run: as §1

Klebsiella pneumonia = assay: MIC against Gram-negative bacteria: Klebsiella pneumonia; conditions: 5×10^5 CFU/mL
How it was run: as §1

Pseudomonas aeruginosa = assay: MIC against Gram-negative bacteria: Pseudomonas aeruginosa; conditions: 5×10^5 CFU/mL
How it was run: as §1

[1] = S. marcescens, 10 h cultivation at 37° C.
[2] = M. catarrhalis, 10 h cultivation at 37° C.
[3] = A. hydrophila, 10 h cultivation at 37° C.
[4] = C. diversus, 10 h cultivation at 37° C.
[5] = E. coli BL21, 10 h cultivation at 37° C.
[6] = P. vulgaris, 10 h cultivation at 37° C.
[7] = P. mirabilis, 10 h cultivation at 37° C.
[8] = E. cloacae, 10 h cultivation at 37° C.
[9] = K. pneumonia, 10 h cultivation at 37° C.
[10] = P. aeruginosa, 10 h cultivation at 37° C.
[11] = Serratia marcescens, 96-well plate, 37° C., 10 h
[12] = Moraxella catarrhalis, 96-well plate, 37° C., 10 h
[13] = Aeromonas hydrophila, 96-well plate, 37° C., 10 h
[14] = Citrobacter diversus, 96-well plate, 37° C., 10 h
[15] = E. coli BL21, 96-well plate, 37° C., 10 h
[16] = Proteus vulgaris, 96-well plate, 37° C., 10 h
[17] = Proteus mirabilis, 96-well plate, 37° C., 10 h
[18] = Enterobacter cloacae, 96-well plate, 37° C., 10 h
[19] = Klebsiella pneumonia, 96-well plate, 37° C., 10 h
[20] = Pseudomonas aeruginosa, 96-well plate, 37° C., 10 h
[21] = 10 h cultivation at 37° C., two-fold serial dilution

Substance: PRT802 (SNRCQCQNGALCNPITGACVCAAGFRGWRCE; listed as Homo sapiens)
- MIC (μg/mL) S. marcescens (Serratia marcescens; [1]): 12.5 µg/mL
- MIC (μg/mL) M. catarrhalis (Moraxella catarrhalis; [2]): 12.5 µg/mL
- MIC (μg/mL) A. hydrophila (Aeromonas hydrophila; [3]): 12.5 µg/mL
- MIC (μg/mL) C. diversus (Citrobacter diversus; [4]): 25 µg/mL
- MIC (E. coli DH5α): 12.5 µg/mL
- MIC (μg/mL) E. coli BL21 (E. coli BL21; [5]): 12.5 µg/mL
- MIC (μg/mL) P. vulgaris (Proteus vulgaris; [6]): 25 µg/mL
- MIC (μg/mL) P. mirabilis (Proteus mirabilis; [7]): 25 µg/mL
- MIC (μg/mL) E. cloacae (Enterobacter cloacae; [8]): 12.5 µg/mL
- MIC (μg/mL) K. pneumonia (Klebsiella pneumonia; [9]): 12.5 µg/mL
- MIC (μg/mL) P. aeruginosa (Pseudomonas aeruginosa; [10]): 25 µg/mL

Substance: PRT553 (CQCPGGRCDPHTGRCNCPPGLSGERCDTCSQQHQVPVPGGPVGHSIHCEV; listed as Homo sapiens)
- MIC against S. marcescens (Serratia marcescens; 96-well plate, 37° C., 10 h): 25 µg/mL
- MIC against M. catarrhalis (Moraxella catarrhalis; 96-well plate, 37° C., 10 h): 12.5 µg/mL
- MIC against A. hydrophila (Aeromonas hydrophila; 96-well plate, 37° C., 10 h): 50 µg/mL
- MIC against C. diversus (Citrobacter diversus; 96-well plate, 37° C., 10 h): 25 µg/mL
- MIC (E. coli DH5α): 25 µg/mL
- MIC against E. coli BL21 (E. coli BL21; 96-well plate, 37° C., 10 h): 50 µg/mL
- MIC against P. vulgaris (Proteus vulgaris; 96-well plate, 37° C., 10 h): 50 µg/mL
- MIC against P. mirabilis (Proteus mirabilis; 96-well plate, 37° C., 10 h): 25 µg/mL
- MIC against E. cloacae (Enterobacter cloacae; 96-well plate, 37° C., 10 h): 25 µg/mL
- MIC against K. pneumonia (Klebsiella pneumonia; 96-well plate, 37° C., 10 h): 12.5 µg/mL
- MIC against P. aeruginosa (Pseudomonas aeruginosa; 96-well plate, 37° C., 10 h): 25 µg/mL

Substance: PRT1208 (VHHGCEDDPCPEGSECVSDPWEEKHTCVCPSGRFGQCP; listed as Homo sapiens)
- MIC against S. marcescens (Serratia marcescens; [11]): 12.5 µg/mL
- MIC against M. catarrhalis (Moraxella catarrhalis; [12]): 12.5 µg/mL
- MIC against A. hydrophila (Aeromonas hydrophila; [13]): 50 µg/mL
- MIC against C. diversus (Citrobacter diversus; [14]): 25 µg/mL
- MIC (E. coli DH5α): 12.5 µg/mL
- MIC against E. coli BL21 (E. coli BL21; [15]): 25 µg/mL
- MIC against P. vulgaris (Proteus vulgaris; [16]): 25 µg/mL
- MIC against P. mirabilis (Proteus mirabilis; [17]): 50 µg/mL
- MIC against E. cloacae (Enterobacter cloacae; [18]): 12.5 µg/mL
- MIC against K. pneumonia (Klebsiella pneumonia; [19]): 25 µg/mL
- MIC against P. aeruginosa (Pseudomonas aeruginosa; [20]): 12.5 µg/mL

Substance: PRT1323 (DCIECPGGAGSPCNGRGSCAEGMEGNGTCSCQEGFGGTACE; listed as Homo sapiens)
- MIC against S. marcescens (Serratia marcescens; [11]): 12.5 µg/mL
- MIC against M. catarrhalis (Moraxella catarrhalis; [12]): 12.5 µg/mL
- MIC against A. hydrophila (Aeromonas hydrophila; [13]): 12.5 µg/mL
- MIC against C. diversus (Citrobacter diversus; [14]): 50 µg/mL
- MIC (E. coli DH5α): 12.5 µg/mL
- MIC against E. coli BL21 (E. coli BL21; [15]): 25 µg/mL
- MIC against P. vulgaris (Proteus vulgaris; [16]): 50 µg/mL
- MIC against P. mirabilis (Proteus mirabilis; [17]): 25 µg/mL
- MIC against E. cloacae (Enterobacter cloacae; [18]): 12.5 µg/mL
- MIC against K. pneumonia (Klebsiella pneumonia; [19]): 25 µg/mL
- MIC against P. aeruginosa (Pseudomonas aeruginosa; [20]): 12.5 µg/mL

Substance: PRT635 (DINECLEDKSVCQRGDCINTAGSYDCTCPDGFQLDDNKTCQ; listed as Homo sapiens)
- MIC S. marcescens (Serratia marcescens; 96-well plate, 37° C., 10 h): 25 µg/mL
- MIC M. catarrhalis (Moraxella catarrhalis; 96-well plate, 37° C., 10 h): 12.5 µg/mL
- MIC A. hydrophila (Aeromonas hydrophila; 96-well plate, 37° C., 10 h): 25 µg/mL
- MIC C. diversus (Citrobacter diversus; 96-well plate, 37° C., 10 h): 12.5 µg/mL
- MIC (E. coli DH5α): 12.5 µg/mL
- MIC E. coli BL21 (E. coli BL21; 96-well plate, 37° C., 10 h): 25 µg/mL
- MIC P. vulgaris (Proteus vulgaris; 96-well plate, 37° C., 10 h): 12.5 µg/mL
- MIC P. mirabilis (Proteus mirabilis; 96-well plate, 37° C., 10 h): 25 µg/mL
- MIC E. cloacae (Enterobacter cloacae; 96-well plate, 37° C., 10 h): 12.5 µg/mL
- MIC K. pneumonia (Klebsiella pneumonia; 96-well plate, 37° C., 10 h): 25 µg/mL
- MIC P. aeruginosa (Pseudomonas aeruginosa; 96-well plate, 37° C., 10 h): 12.5 µg/mL

Substance: PRT849 (CPCSAVTSTGSCSIKSSELEPECDQCKDGYIGPNCNKCENGYYNFDSICRK; listed as Homo sapiens)
- MIC (μg/mL) S. marcescens (Serratia marcescens; [1]): 25 µg/mL
- MIC (μg/mL) M. catarrhalis (Moraxella catarrhalis; [2]): 25 µg/mL
- MIC (μg/mL) A. hydrophila (Aeromonas hydrophila; [3]): 25 µg/mL
- MIC (μg/mL) C. diversus (Citrobacter diversus; [4]): 12.5 µg/mL
- MIC (E. coli DH5α): 12.5 µg/mL
- MIC (μg/mL) E. coli BL21 (E. coli BL21; [5]): 12.5 µg/mL
- MIC (μg/mL) P. vulgaris (Proteus vulgaris; [6]): 12.5 µg/mL
- MIC (μg/mL) P. mirabilis (Proteus mirabilis; [7]): 12.5 µg/mL
- MIC (μg/mL) E. cloacae (Enterobacter cloacae; [8]): 12.5 µg/mL
- MIC (μg/mL) K. pneumonia (Klebsiella pneumonia; [9]): 12.5 µg/mL
- MIC (μg/mL) P. aeruginosa (Pseudomonas aeruginosa; [10]): 12.5 µg/mL

Substance: PRT769 (CNGVDHGCEFQCVSEGLSYRCLCPEGRQLQADGKSC; listed as Homo sapiens)
- MIC (μg/mL) S. marcescens (Serratia marcescens; [1]): 12.5 µg/mL
- MIC (μg/mL) M. catarrhalis (Moraxella catarrhalis; [2]): 12.5 µg/mL
- MIC (μg/mL) A. hydrophila (Aeromonas hydrophila; [3]): 25 µg/mL
- MIC (μg/mL) C. diversus (Citrobacter diversus; [4]): 12.5 µg/mL
- MIC (E. coli DH5α): 12.5 µg/mL
- MIC (μg/mL) E. coli BL21 (E. coli BL21; [5]): 12.5 µg/mL
- MIC (μg/mL) P. vulgaris (Proteus vulgaris; [6]): 25 µg/mL
- MIC (μg/mL) P. mirabilis (Proteus mirabilis; [7]): 12.5 µg/mL
- MIC (μg/mL) E. cloacae (Enterobacter cloacae; [8]): 12.5 µg/mL
- MIC (μg/mL) K. pneumonia (Klebsiella pneumonia; [9]): 25 µg/mL
- MIC (μg/mL) P. aeruginosa (Pseudomonas aeruginosa; [10]): 12.5 µg/mL

Substance: PRT1173 (KCIPHPGCVHGICNEPWQCLCETNWGGQLCD; listed as Homo sapiens)
- MIC S. marcescens (Serratia marcescens; [21]): 50 µg/mL
- MIC M. catarrhalis (Moraxella catarrhalis; [21]): 12.5 µg/mL
- MIC A. hydrophila (Aeromonas hydrophila; [21]): 12.5 µg/mL
- MIC C. diversus (Citrobacter diversus; [21]): 50 µg/mL
- MIC (E. coli DH5α): 12.5 µg/mL
- MIC E. coli BL21 (E. coli BL21; [21]): 25 µg/mL
- MIC P. vulgaris (Proteus vulgaris; [21]): 12.5 µg/mL
- MIC P. mirabilis (Proteus mirabilis; [21]): 50 µg/mL
- MIC E. cloacae (Enterobacter cloacae; [21]): 12.5 µg/mL
- MIC K. pneumonia (Klebsiella pneumonia; [21]): 25 µg/mL
- MIC P. aeruginosa (Pseudomonas aeruginosa; [21]): 12.5 µg/mL

Substance: PRT121 (CGPCFNNGVPILEGTSCRCQCRLGSLGAACE; listed as Homo sapiens)
- MIC (μg/mL) S. marcescens (Serratia marcescens; [11]): 25 µg/mL
- MIC (μg/mL) M. catarrhalis (Moraxella catarrhalis; [12]): 12.5 µg/mL
- MIC (μg/mL) A. hydrophila (Aeromonas hydrophila; [13]): 12.5 µg/mL
- MIC (μg/mL) C. diversus (Citrobacter diversus; [14]): 50 µg/mL
- MIC (E. coli DH5α): 25 µg/mL
- MIC (μg/mL) E. coli BL21 (E. coli BL21; [15]): 12.5 µg/mL
- MIC (μg/mL) P. vulgaris (Proteus vulgaris; [16]): 50 µg/mL
- MIC (μg/mL) P. mirabilis (Proteus mirabilis; [17]): 25 µg/mL
- MIC (μg/mL) E. cloacae (Enterobacter cloacae; [18]): 50 µg/mL
- MIC (μg/mL) K. pneumonia (Klebsiella pneumonia; [19]): 12.5 µg/mL
- MIC (μg/mL) P. aeruginosa (Pseudomonas aeruginosa; [20]): 25 µg/mL

Substance: PRT817 (FGPGCEQRCQCQHGAACDHVSGACTCPAGWRGTFCE; listed as Homo sapiens)
- MIC (μg/mL) S. marcescens (Serratia marcescens; [1]): 12.5 µg/mL
- MIC (μg/mL) M. catarrhalis (Moraxella catarrhalis; [2]): 25 µg/mL
- MIC (μg/mL) A. hydrophila (Aeromonas hydrophila; [3]): 25 µg/mL
- MIC (μg/mL) C. diversus (Citrobacter diversus; [4]): 50 µg/mL
- MIC (E. coli DH5α): 50 µg/mL
- MIC (μg/mL) E. coli BL21 (E. coli BL21; [5]): 12.5 µg/mL
- MIC (μg/mL) P. vulgaris (Proteus vulgaris; [6]): 50 µg/mL
- MIC (μg/mL) P. mirabilis (Proteus mirabilis; [7]): 12.5 µg/mL
- MIC (μg/mL) E. cloacae (Enterobacter cloacae; [8]): 12.5 µg/mL
- MIC (μg/mL) K. pneumonia (Klebsiella pneumonia; [9]): 25 µg/mL
- MIC (μg/mL) P. aeruginosa (Pseudomonas aeruginosa; [10]): 50 µg/mL
